Assay results as given in patent US10703760B2, “Morphic forms of marizomib and uses thereof” (Celgene International II Sàrl, priority 2016, dated 2020).

Assays:
Format in all cases: physicochemical
[1] = Hydrolysis of marizomib / chemical purity by HPLC after solvent exposure; details: starting material 98.2%
Description: Purity analysis was performed on an Agilent HP1100 series system equipped with a diode array detector and using ChemStation software vB.04.03 using the method set forth in Table-5.
30 mg of Sample 1 was suspended in the given solvent shown in Table 6 (1 ml) at room temperature. The samples were matured between 50° C. and room temperature heat-cool cycles (8 h per cycle) for 96 h. The solids were filtered, air dried and analyzed by XRPD.

[2] = Variable temperature XRPD
Description: Samples run under non-ambient conditions were mounted on a silicon wafer with heat-conducting compound. The sample was then heated to the appropriate temperature at 20° C./min and subsequently held isothermally for 1 minute before data collection was initiated.

[3] = Polymorphism screening of Sample 1 (solubility observations, maturation, cooling, XRPD); set-up: key to Obs. at r.t. 10 vol. / Obs. at r.t. 20 vol. / Obs. at r.t. 30 vol. / Obs. at r.t. 40 vol. / Obs. at r.t. 50 vol. / Maturation 50° C./r.t. / Cooling at 5° C.: ✓ = Soluble; X = Insoluble,; details: for Maturation 50° C./r.t.: heat-cool cycles 24 h; for Cooling at 5° C.: held at 5° C. for 48 h
Description: Polymorphism studies on marizomib were carried out in different solvents and conditions to understand the polymorphic behavior of the free form. Marizomib (Sample 1, 30 mg) was dissolved or suspended in the given solvent at room temperature. Solvent was added until the material dissolved or up to a maximum of 50 volumes. The suspensions were matured between 50° C. and room temperature heat-cool cycles (8 h per cycle) for 24 h. The solutions were cooled to and held at 5° C. for 48 h. If no solid was obtained then the solutions were allowed to evaporate slowly at room temperature. All the recovered solids were analyzed by XRPD.

[4] = Thermogravimetric analysis (TGA); details: heated at 10° C./min under nitrogen
Description: TGA data were collected on a TA Instruments Q500 TGA, equipped with a 16-position auto-sampler. The instrument was temperature calibrated using certified Alumel™ and Nickel. Typically 5-10 mg of each sample was loaded onto a pre-tared aluminum DSC pan and heated at 10° C./min from ambient temperature to 350° C. A nitrogen purge at 60 ml/min was maintained over the sample.
TG analyses were performed using a TA Instruments Q5000 IR thermogravimetric analyzer. Temperature calibration was performed using nickel and Alumel™. Each sample was placed in an aluminum pan. The sample was hermetically sealed, the lid pierced, then inserted into the TG furnace. The furnace was heated under nitrogen.

Compound: C[C@@]12OC(=O)[C@]1([C@@H](O)[C@@H]1C=CCCC1)NC(=O)[C@@H]2CCCl [Sample 1, marizomib]
- Chemical purity (HPLC) of solid isolated from polymorphism screen ([1]; isolated from EtOAc experiment): 96.8%
- Chemical purity (HPLC) of solid isolated from polymorphism screen ([1]; isolated from EtOH experiment): 97.4%
- Morphic form on heating (variable temperature XRPD) ([2]; 25° C. to 160° C.): remained as Form I
- Discoloration (white to yellow) temperature; melting and/or degradation after about five minutes hold ([2]; during variable temperature XRPD): about 160 °C
- Obs. at r.t. 10 vol. ([3]; 2-Propanol): X
- Obs. at r.t. 20 vol. ([3]; 2-Propanol): X
- Obs. at r.t. 30 vol. ([3]; 2-Propanol): X
- Obs. at r.t. 40 vol. ([3]; 2-Propanol): X
- Obs. at r.t. 50 vol. ([3]; 2-Propanol): X
- Maturation 50° C./r.t. ([3]; 2-Propanol): X
- Morphic form obtained from polymorphism screen (XRPD) ([3]; 20 solvents, maturation, cooling, evaporation): Form I was the only form obtained
- Obs. at r.t. 10 vol. ([3]; Acetone): X
- Obs. at r.t. 20 vol. ([3]; Acetone): X
- Obs. at r.t. 30 vol. ([3]; Acetone): X
- Obs. at r.t. 40 vol. ([3]; Acetone): X
- Obs. at r.t. 50 vol. ([3]; Acetone): X
- Maturation 50° C./r.t. ([3]; Acetone): ✓
- Cooling at 5° C. ([3]; Acetone): ✓
- Obs. at r.t. 10 vol. ([3]; Acetonitrile): X
- Obs. at r.t. 20 vol. ([3]; Acetonitrile): X
- Obs. at r.t. 30 vol. ([3]; Acetonitrile): X
- Obs. at r.t. 40 vol. ([3]; Acetonitrile): X
- Obs. at r.t. 50 vol. ([3]; Acetonitrile): X
- Maturation 50° C./r.t. ([3]; Acetonitrile): X
- Obs. at r.t. 10 vol. ([3]; Anisole): X
- Obs. at r.t. 20 vol. ([3]; Anisole): X
- Obs. at r.t. 30 vol. ([3]; Anisole): X
- Obs. at r.t. 40 vol. ([3]; Anisole): X
- Obs. at r.t. 50 vol. ([3]; Anisole): X
- Maturation 50° C./r.t. ([3]; Anisole): X
- Obs. at r.t. 10 vol. ([3]; Chloroform): X
- Obs. at r.t. 20 vol. ([3]; Chloroform): ✓
- Cooling at 5° C. ([3]; Chloroform): ✓
- Obs. at r.t. 10 vol. ([3]; Cumene): X
- Obs. at r.t. 20 vol. ([3]; Cumene): X
- Obs. at r.t. 30 vol. ([3]; Cumene): X
- Obs. at r.t. 40 vol. ([3]; Cumene): X
- Obs. at r.t. 50 vol. ([3]; Cumene): X
- Maturation 50° C./r.t. ([3]; Cumene): X
- Obs. at r.t. 10 vol. ([3]; DMA): X
- Obs. at r.t. 20 vol. ([3]; DMA): ✓
- Cooling at 5° C. ([3]; DMA): ✓
- Obs. at r.t. 10 vol. ([3]; DMF): X
- Obs. at r.t. 20 vol. ([3]; DMF): ✓
- Cooling at 5° C. ([3]; DMF): ✓
- Obs. at r.t. 10 vol. ([3]; Dichloromethane): X
- Obs. at r.t. 20 vol. ([3]; Dichloromethane): X
- Obs. at r.t. 30 vol. ([3]; Dichloromethane): X
- Obs. at r.t. 40 vol. ([3]; Dichloromethane): X
- Obs. at r.t. 50 vol. ([3]; Dichloromethane): X
- Maturation 50° C./r.t. ([3]; Dichloromethane): X
- Obs. at r.t. 10 vol. ([3]; Dimethyl sulfoxide): X
- Obs. at r.t. 20 vol. ([3]; Dimethyl sulfoxide): X
- Obs. at r.t. 30 vol. ([3]; Dimethyl sulfoxide): X
- Obs. at r.t. 40 vol. ([3]; Dimethyl sulfoxide): X
- Obs. at r.t. 50 vol. ([3]; Dimethyl sulfoxide): X
- Maturation 50° C./r.t. ([3]; Dimethyl sulfoxide): ✓
- Cooling at 5° C. ([3]; Dimethyl sulfoxide): ✓
- Obs. at r.t. 10 vol. ([3]; Ethanol): X
- Obs. at r.t. 20 vol. ([3]; Ethanol): X
- Obs. at r.t. 30 vol. ([3]; Ethanol): X
- Obs. at r.t. 40 vol. ([3]; Ethanol): X
- Obs. at r.t. 50 vol. ([3]; Ethanol): X
- Maturation 50° C./r.t. ([3]; Ethanol): X
- Obs. at r.t. 10 vol. ([3]; Ethyl acetate): X
- Obs. at r.t. 20 vol. ([3]; Ethyl acetate): X
- Obs. at r.t. 30 vol. ([3]; Ethyl acetate): X
- Obs. at r.t. 40 vol. ([3]; Ethyl acetate): X
- Obs. at r.t. 50 vol. ([3]; Ethyl acetate): X
- Maturation 50° C./r.t. ([3]; Ethyl acetate): ✓
- Cooling at 5° C. ([3]; Ethyl acetate): ✓
- Obs. at r.t. 10 vol. ([3]; Isopropyl acetate): X
- Obs. at r.t. 20 vol. ([3]; Isopropyl acetate): X
- Obs. at r.t. 30 vol. ([3]; Isopropyl acetate): X
- Obs. at r.t. 40 vol. ([3]; Isopropyl acetate): X
- Obs. at r.t. 50 vol. ([3]; Isopropyl acetate): X
- Maturation 50° C./r.t. ([3]; Isopropyl acetate): X
- Obs. at r.t. 10 vol. ([3]; MEK): X
- Obs. at r.t. 20 vol. ([3]; MEK): X
- Obs. at r.t. 30 vol. ([3]; MEK): X
- Obs. at r.t. 40 vol. ([3]; MEK): X
- Obs. at r.t. 50 vol. ([3]; MEK): X
- Maturation 50° C./r.t. ([3]; MEK): ✓
- Cooling at 5° C. ([3]; MEK): ✓
- Obs. at r.t. 10 vol. ([3]; MIBK): X
- Obs. at r.t. 20 vol. ([3]; MIBK): X
- Obs. at r.t. 30 vol. ([3]; MIBK): X
- Obs. at r.t. 40 vol. ([3]; MIBK): X
- Obs. at r.t. 50 vol. ([3]; MIBK): X
- Maturation 50° C./r.t. ([3]; MIBK): X
- Obs. at r.t. 10 vol. ([3]; Nitromethane): X
- Obs. at r.t. 20 vol. ([3]; Nitromethane): X
- Obs. at r.t. 30 vol. ([3]; Nitromethane): X
- Obs. at r.t. 40 vol. ([3]; Nitromethane): X
- Obs. at r.t. 50 vol. ([3]; Nitromethane): X
- Maturation 50° C./r.t. ([3]; Nitromethane): X
- Obs. at r.t. 10 vol. ([3]; Tetrahydrofuran): X
- Obs. at r.t. 20 vol. ([3]; Tetrahydrofuran): ✓
- Cooling at 5° C. ([3]; Tetrahydrofuran): ✓
- Obs. at r.t. 10 vol. ([3]; Toluene): X
- Obs. at r.t. 20 vol. ([3]; Toluene): X
- Obs. at r.t. 30 vol. ([3]; Toluene): X
- Obs. at r.t. 40 vol. ([3]; Toluene): X
- Obs. at r.t. 50 vol. ([3]; Toluene): X
- Maturation 50° C./r.t. ([3]; Toluene): X
- Obs. at r.t. 10 vol. ([3]; n-Heptane): X
- Obs. at r.t. 20 vol. ([3]; n-Heptane): X
- Obs. at r.t. 30 vol. ([3]; n-Heptane): X
- Obs. at r.t. 40 vol. ([3]; n-Heptane): X
- Obs. at r.t. 50 vol. ([3]; n-Heptane): X
- Maturation 50° C./r.t. ([3]; n-Heptane): X
- Obs. at r.t. 10 vol. ([3]; tert-Butylmethyl ether): X
- Obs. at r.t. 20 vol. ([3]; tert-Butylmethyl ether): X
- Obs. at r.t. 30 vol. ([3]; tert-Butylmethyl ether): X
- Obs. at r.t. 40 vol. ([3]; tert-Butylmethyl ether): X
- Obs. at r.t. 50 vol. ([3]; tert-Butylmethyl ether): X
- Maturation 50° C./r.t. ([3]; tert-Butylmethyl ether): X

Compound: C[C@@]12OC(=O)[C@]1([C@@H](O)[C@@H]1C=CCCC1)NC(=O)[C@@H]2CCCl [Sample 3, marizomib]
- TGA: no weight loss observed until (weight loss can be due to sample degradation) [4]: about 175 °C
